{"source": "patent US11571411B2", "about": "“Use of a bisamide derivative of malonic acid for treating allergic and other diseases in humans and animals” (PHARMENTERPRISES ALLERGY LLC, priority 2018, dated 2023)", "origin": "cited, not measured here", "key": {"[1]": {"conditions": "in vivo; cited from earlier work"}, "H3 receptor": {"molecular_target": "T1, H3 receptor (Homo sapiens, UniProt Q9Y5N1)", "T1 construct": "host or cells: human volunteers (nasal mucosa, in vivo)", "T1 sequence (Q9Y5N1 whole entry)": "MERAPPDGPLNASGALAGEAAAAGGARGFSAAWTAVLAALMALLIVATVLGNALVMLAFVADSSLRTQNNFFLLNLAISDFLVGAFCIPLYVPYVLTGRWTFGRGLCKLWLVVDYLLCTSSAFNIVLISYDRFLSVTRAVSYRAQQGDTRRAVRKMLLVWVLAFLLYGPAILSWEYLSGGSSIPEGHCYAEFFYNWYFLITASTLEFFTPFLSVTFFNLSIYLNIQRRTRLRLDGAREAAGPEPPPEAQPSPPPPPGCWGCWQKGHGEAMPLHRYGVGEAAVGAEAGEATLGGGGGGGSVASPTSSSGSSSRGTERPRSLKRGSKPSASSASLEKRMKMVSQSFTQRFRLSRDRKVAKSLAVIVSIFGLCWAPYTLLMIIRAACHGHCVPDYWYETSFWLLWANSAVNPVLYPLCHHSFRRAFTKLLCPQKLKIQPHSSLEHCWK", "conditions": "humans, topical administration; cited from earlier work"}}, "data": [{"molecule": "S=C(NC1CCCCC1)N1CCC(c2cnc[nH]2)CC1", "note": "[Thioperamide]", "values": [{"measurement": "crossing of the blood-brain barrier", "setting": "[1]", "result": "cross the blood-brain barrier"}, {"measurement": "effect on nasal blockage induced by R-alpha-methylhistamine", "setting": "H3 receptor", "result": "reduced"}]}]}
